The results in this text go back to patent US9815787B2, “Sulfonamide derivative or pharmaceutically acceptable acid addition salt thereof” (UNIVERSITY OF TSUKUBA, priority 2013, dated 2017).

The structures appear in SMILES notation.

For orientation: EC50 means the concentration at which the effect is half-maximal. Low readings indicate an effect from little substance, high ones a need for much substance. As usually defined, the Emax is the greatest response seen or fitted, relative to the assay's reference.

The assay has as its target T1, OX2R (Homo sapiens, UniProt O43614).
T1 construct: expressed in transfected cells; host or cells: CHO (Chinese hamster ovary) cells constitutively expressing the OX2R gene and NFAT-luciferase (CHOOX2R)
T1 sequence (O43614 1-444): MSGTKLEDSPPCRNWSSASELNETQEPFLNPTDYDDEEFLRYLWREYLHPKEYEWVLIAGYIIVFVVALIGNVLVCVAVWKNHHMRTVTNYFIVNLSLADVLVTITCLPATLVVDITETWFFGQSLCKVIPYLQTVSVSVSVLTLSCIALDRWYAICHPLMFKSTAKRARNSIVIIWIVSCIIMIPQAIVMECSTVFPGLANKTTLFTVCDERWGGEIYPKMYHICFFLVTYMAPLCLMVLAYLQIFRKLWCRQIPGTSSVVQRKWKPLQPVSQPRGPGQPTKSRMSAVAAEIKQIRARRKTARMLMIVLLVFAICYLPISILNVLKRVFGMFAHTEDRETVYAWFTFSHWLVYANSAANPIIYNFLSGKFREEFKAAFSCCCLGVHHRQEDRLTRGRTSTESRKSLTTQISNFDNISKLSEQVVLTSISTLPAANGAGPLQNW
Description: Evaluation of agonist activity against OX2R (CHOOX2R cells, Fura2AM fluorescence, FDSS3000). The class given is cell-based. On the procedure:
Evaluation of Agonist Activity Against OX2R
NFAT-luciferase gene and OX2R gene were each constitutively expressed in CHO cell, which is a cell line derived from Chinese hamster ovary to establish a cell line (CHOOX2R). The cells thereof were sown on a 96 well plate at 10000 cells/well, and cultured in a 5% FBS-added DMEM medium for 48 hr. […] After washing, HEPES buffer (75 μL) was added, a test compound solution (25 μL) was added, and changes in the fluorescence intensity were measured by FDSS3000 (Hamamatsu Photonics K.K.). The test compound was dissolved in DMSO (final concentration of DMSO was 1%), and diluted with HEPES buffer to a final concentration of 0.1 μM, 1.0 μM or 10 μM.

Setting [1] is: test compound 0.1 μM; relative to orexin-A as full agonist (100%); CHOOX2R cells.
Setting [2] is: test compound 1.0 μM; relative to orexin-A as full agonist (100%); CHOOX2R cells.
The mark [3] stands for this setting: test compound 10 μM; relative to orexin-A as full agonist (100%); CHOOX2R cells.
The mark [4] stands for this setting: test compound 0.1 μM; CHOOX2R cells; relative to orexin-A as full agonist (100%).
[5] abbreviates: test compound 1.0 μM; CHOOX2R cells; relative to orexin-A as full agonist (100%).
Where [6] appears, read: test compound 10 μM; CHOOX2R cells; relative to orexin-A as full agonist (100%).
Where [7] appears, read: OX2R agonist activity; CHOOX2R cells.
[8] abbreviates: conversion with orexin-A as full agonist (maximum agonist activity 100%).

For the molecule `COc1ccccc1C(=O)NCCNc1cccc(NS(=O)(=O)c2cc(-c3cccc(F)c3)ccc2OC)c1` [Example 109, N-(2-((3-(3′-fluoro-4-methoxy-[1,1′-biphenyl]-3-ylsulfonamido)phenyl)amino)ethyl)-2-methoxybenzamide], under setting [1], the “Response (0.1 μM (%))” value stood at 13%. In addition, the “Response (1.0 μM (%))” value under setting [2] is given as 46%. For the same molecule, the “Response (10 μM (%))” value under setting [3] was found to be 47%.
Take `COc1ccc(F)c(-c2ccc(OC)c(S(=O)(=O)Nc3cccc(NCCNC(=O)c4ccccc4OC)c3)c2)c1` [Example 34, N-(2-((3-(2′-fluoro-4,5′-dimethoxy-[1,1′-biphenyl]-3-ylsulfonamide)phenyl)amino)ethyl)-2-methoxybenzamide]: the “Response (0.1 μM (%))” value under setting [4] came to 13%. For the same molecule, the “Response (1.0 μM (%))” value under setting [5] was 64%. Further, under setting [6], the “Response (10 μM (%))” value stood at 123%.
In the same order, the values of `COCCN(C)C(=O)c1cccc(-c2ccc(OC)c(S(=O)(=O)Nc3cccc(NCCNC(=O)c4ccccc4OC)c3)c2)c1` [Example 77, 4′-methoxy-3′-(N-(3-((2-(2-methoxybenzamido)ethyl)amino)phenyl)sulfamoyl)-N-(2-methoxyethyl)-N-methyl-[1,1′-biphenyl]-3-carboxamide] are 42%, 91% and 82%.
Consider `COc1ccccc1C(=O)NCCN(C)c1cccc(NS(=O)(=O)c2cc(-c3cccc(C(=O)N(C)C)c3)ccc2OC)c1` [Example 112, 4′-methoxy-3′-(N-(3-((2-(2-methoxybenzamido)ethyl) (methyl)amino)phenyl)sulfamoyl)-N,N-dimethyl-[1,1′-biphenyl]-3-carboxamide], for which the “Response (0.1 μM (%))” value under setting [1] is given as <5%. The “Response (1.0 μM (%))” value under setting [2] is given as 131%. The “Response (10 μM (%))” value under setting [3] is reported as 139%.
In turn, `COc1ccc(-c2cccc(C(=O)N(C)C)c2)cc1S(=O)(=O)Nc1cccc(NCCNC(=O)c2ccccc2Cl)c1` [Example 42, 3′-(N-(3-((2-(2-chlorobenzamido)ethyl)amino)phenyl)sulfamoyl)-4′-methoxy-N,N-dimethyl-[1,1′-biphenyl]-3-carboxamide] registered an EC50 under setting [7] of 31 nM. This molecule had an Emax under setting [8] of 90%. Also, the “Response (0.1 μM (%))” value under setting [4] turned out to be 65%. Moreover, the “Response (1.0 μM (%))” value under setting [5] is given as 103%. For the same molecule, the “Response (10 μM (%))” value under setting [6] was 114%.
For the molecule `COc1ccc(-c2cccc(C(=O)N(C)C)c2)cc1S(=O)(=O)Nc1cccc(NCCNC(=O)c2ccccc2C(F)(F)F)c1` [Example 69, 4′-methoxy-N,N-dimethyl-3′-(N-(3-((2-(2-(trifluoromethyl)benzamido)ethyl)amino)phenyl)sulfamoyl)-[1,1′-biphenyl]-3-carboxamide], the “Response (0.1 μM (%))” value under setting [4] was 67%. Further, the “Response (1.0 μM (%))” value under setting [5] is recorded as 123%. In addition, the “Response (10 μM (%))” value under setting [6] came out at 111%.
Regarding `COc1cccc(C(=O)NCCNc2cccc(NS(=O)(=O)c3cc(-c4cc(Cl)ccc4Cl)ccc3OC)c2)c1` [Example 26, N-(2-((3-(2′,5′-dichloro-4-methoxy-[1,1′-biphenyl]-3-ylsulfonamide)phenyl)amino)ethyl)-3-methoxybenzamide], the “Response (0.1 μM (%))” value under setting [1] is given as <5%. Also, under setting [2], the “Response (1.0 μM (%))” value turned out to be 5%. Further, under setting [3], the “Response (10 μM (%))” value was found to be 29%.
For the molecule `COc1ccc(-c2cccc(C(=O)N(C)C)c2)cc1S(=O)(=O)Nc1cccc(NCCNC(=O)c2ccccc2C#N)c1` [Example 71, 3′-(N-(3-((2-(2-cyanobenzamido)ethyl)amino)phenyl)sulfamoyl)-4′-methoxy-N,N-dimethyl-[1,1′-biphenyl]-3-carboxamide], the “Response (0.1 μM (%))” value under setting [4] is given as <5%. Also, the “Response (1.0 μM (%))” value under setting [5] came out at 39%. The “Response (10 μM (%))” value under setting [6] came to 80%.
As to `COc1ccccc1C(=O)NCCNc1cccc(NS(=O)(=O)c2cc(-c3c(F)cccc3F)ccc2OC)c1` [Example 17, N-(2-((3-(2′,6′-difluoro-4-methoxy-[1,1′-biphenyl]-3-ylsulfonamide)phenyl)amino)ethyl)-2-methoxybenzamide], the “Response (0.1 μM (%))” value under setting [1] is listed as <5%. Moreover, the “Response (1.0 μM (%))” value under setting [2] came out at 18%. Under setting [3], the “Response (10 μM (%))” value amounted to 182%.
For the molecule `COc1ccc(-c2cccc(C(=O)N(C)C)c2)cc1S(=O)(=O)Nc1cccc(NCCNC(=O)c2occc2C)c1` [Example 68, N-(2-((3-(3′-(dimethylcarbamoyl)-4-methoxy-[1,1′-biphenyl]-3-ylsulfonamido)phenyl)amino)ethyl)-3-methylfuran-2-carboxamide], the “Response (0.1 μM (%))” value under setting [4] was determined as 42%. Further, the “Response (1.0 μM (%))” value under setting [5] stood at 86%. The “Response (10 μM (%))” value under setting [6] came out at 74%.
On to `COc1cccc(C(=O)NCCNc2cccc(NS(=O)(=O)c3cc(-c4cc(OC)ccc4F)ccc3OC)c2)c1` [Example 35, N-(2-((3-(2′-fluoro-4,5′-dimethoxy-[1,1′-biphenyl]-3-ylsulfonamide)phenyl)amino)ethyl)-3-methoxybenzamide], for which the “Response (0.1 μM (%))” value under setting [4] was found to be 13%. Further, the “Response (1.0 μM (%))” value under setting [5] is 68%. Also, the “Response (10 μM (%))” value under setting [6] is listed as 127%.
As for `COc1ccc(Br)cc1C(=O)NCCNc1cccc(NS(=O)(=O)c2cc(-c3ccccc3F)ccc2OC)c1` [Example 4, 5-bromo-N-(2-((3-(2′-fluoro-4-methoxy-[1,1′-biphenyl]-3-ylsulfonamide)phenyl)amino)ethyl)-2-methoxybenzamide], the “Response (0.1 μM (%))” value under setting [1] is listed as <5%. Under setting [2], the “Response (1.0 μM (%))” value is recorded as <5%. Further, the “Response (10 μM (%))” value under setting [3] amounted to 17%.
As for `COc1ccc(-c2cccc(C(=O)N(C)C)c2)cc1S(=O)(=O)Nc1cccc(NCCNC(=O)c2ccccc2C)c1` [Example 65, 4′-methoxy-N,N-dimethyl-3′-(N-(3-((2-(2-methylbenzamido)ethyl)amino)phenyl)sulfamoyl)-[1,1′-biphenyl]-3-carboxamide], under setting [7], it took 800 nM to reach a half-maximal effect (EC50). The same molecule displayed an Emax under setting [8] of 85%. For the same molecule, under setting [4], the “Response (0.1 μM (%))” value is recorded as 74%. In addition, the “Response (1.0 μM (%))” value under setting [5] is recorded as 96%. Under setting [6], the “Response (10 μM (%))” value came to 74%.
As to `COc1ccc(-c2cccc(C(=O)N3CCCCC3)c2)cc1S(=O)(=O)Nc1cccc(NCCNC(=O)c2ccccc2F)c1` [Example 90, 2-fluoro-N-(2-((3-(4-methoxy-3′-(piperidine-1-carbonyl)-[1,1′-biphenyl]-3-ylsulfonamido)phenyl)amino)ethyl)benzamide], the “Response (0.1 μM (%))” value under setting [4] is listed as 51%. The “Response (1.0 μM (%))” value under setting [5] was 68%. Moreover, under setting [6], the “Response (10 μM (%))” value is on record as 88%.
In the same order, the values of `COc1ccc(-c2cccc(C(=O)N(C)C)c2)cc1S(=O)(=O)Nc1cccc(NCCNC(=O)c2cnccc2Cl)c1` [Example 57, 4-chloro-N-(2-((3-(3′-(dimethylcarbamoyl)-4-methoxy-[1,1′-biphenyl]-3-ylsulfonamido)phenyl)amino)ethyl)nicotinamide] are <5%, 9% and 87%.
As to `COc1cccc(C(=O)NCCNc2cccc(NS(=O)(=O)c3cc(-c4ccccc4Cl)ccc3OC)c2)c1` [Example 11, N-(2-((3-(2′-chloro-4-methoxy-[1,1′-biphenyl]-3-ylsulfonamide)phenyl)amino)ethyl)-3-methoxybenzamide], under setting [1], the “Response (0.1 μM (%))” value was <5%. Under setting [2], the “Response (1.0 μM (%))” value was determined as 17%. The “Response (10 μM (%))” value under setting [3] turned out to be 23%.
